Several values for one entry are separate records, joined by “and”; a condition that tells them apart may be missing. Equal values may be shown once. Peptide text beside a SMILES is read from it.
T1: canine PepT1 (cPepT1) (Canis lupus familiaris, UniProt Q8WMX5)
T1 construct: endogenous in cells; host or cells: MDCK (Madin-Darby Canine Kidney) cells, whole-cell [3H]-GlySar uptake
T1 sequence (Q8WMX5 1-708): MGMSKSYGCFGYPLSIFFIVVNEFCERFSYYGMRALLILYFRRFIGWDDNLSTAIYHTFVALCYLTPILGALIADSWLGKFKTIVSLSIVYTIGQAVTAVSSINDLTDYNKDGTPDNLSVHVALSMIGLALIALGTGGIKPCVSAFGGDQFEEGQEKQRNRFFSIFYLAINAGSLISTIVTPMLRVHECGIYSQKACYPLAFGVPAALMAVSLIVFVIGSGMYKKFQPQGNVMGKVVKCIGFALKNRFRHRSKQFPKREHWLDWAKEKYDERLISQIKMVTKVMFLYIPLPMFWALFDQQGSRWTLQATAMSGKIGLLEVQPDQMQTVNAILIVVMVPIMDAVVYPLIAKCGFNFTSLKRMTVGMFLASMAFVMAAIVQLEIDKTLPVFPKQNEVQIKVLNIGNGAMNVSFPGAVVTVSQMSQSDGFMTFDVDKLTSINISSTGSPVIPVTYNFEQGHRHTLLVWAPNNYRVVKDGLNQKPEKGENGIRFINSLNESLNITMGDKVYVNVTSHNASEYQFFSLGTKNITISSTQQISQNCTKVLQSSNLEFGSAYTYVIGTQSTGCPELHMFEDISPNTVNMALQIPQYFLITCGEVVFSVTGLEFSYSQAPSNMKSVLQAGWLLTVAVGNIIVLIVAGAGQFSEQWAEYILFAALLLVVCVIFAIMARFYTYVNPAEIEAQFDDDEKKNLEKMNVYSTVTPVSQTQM


What was measured:
canine PepT1 (cPepT1) [1] = target: T1, canine PepT1 (cPepT1); test: Inhibition of H+-dependent 100 μM GlySar uptake by MDCK cells cultured in LHM; format: cell-based; conditions: 100 μM extracellular substrate
MDCK cells = test: Inhibition of H+-independent GlySar uptake by MDCK cells; format: cell-based, canine; conditions: 1 mM peptide, 100 μM GlySar
Description: (§1) 5. Transport was initiated by replacing depletion medium with uptake medium (depletion medium adjusted to pH 6.0 or kept at pH 7.4) that contained 100 μM GlySar (at a specific activity of 5 μCi/mL, with [^3H]-GlySar supplying 2.88% of total GlySar substrate) and (or) 1 mM of inhibiting peptide.

canine PepT1 (cPepT1) [2] = target: T1, canine PepT1 (cPepT1); test: Competitor substrate inhibition of [3H]-GlySar uptake by confluent MDCK cells (Example 1); format: cell-based; conditions: for inhibition of H+-dependent uptake of GlySar: 10 mM competitor; for Glysylsarcosine uptake: extracellular pH 6.0, 10 mM competitor, 2.88 [3H]-glycylsarcosine, 30 min; for % inhibition of pH 6.0 uptake: pH 6.0, 10 mM competitor
Description: (§2) Potential expression of PepT1 transport activity (H^+-dependent, dipeptide inhibitable, low-affinity dipeptide transport) by confluent MDCK cells was evaluated using whole-cell transport techniques and glycylsarcosine (GlySar) as a model dipeptide substrate. Cells were seeded at 60,000 cells/cm^2 into 24-well trays that had been coated with rat tail collagen or poly-L-lysine and cultured ([…]:5% CO2 at 37° C.) for 3 d in media consisting of Dulbecco's Modified Eagle Medium/10% fetal calf serum/1% antimicrobial antibacterial medium. Absorption (pmols/mg protein) of [^3H]-glycyl-L-sarcosine (GlySar, 6 mCi/mL, Moravek Biochemicals, Brea, Calif.) was determined using the 24-well cluster tray method and representative scintillation counting. Before transport, cells were incubated at 37° C. for 30 min in 25 mM Hepes/Tris (pH 7.5), 140 mM NaCl, 5.4 mM KCl, 1.8 mM CaCl2, 0.8 mM MgSO4, and 5 mM glucose (uptake buffer) to normalize intracellular amino acid and peptide pools. Transport was initiated by the addition of 0.25 mL of uptake buffer that contained 2.88 μm GlySar. After 30 min of uptake at 37° C., transport was terminated by rapid washing of cells with 4×2 mL 4° C. uptake buffer. Cellular protein was precipitated with 10% trichloroacetic acid and the supernatant recovered and counted to determine radioactivity (^3H) content. Cellular protein was then solubilized in 0.2 N NaOH and 0.2% SDS and quantified by the Lowry procedure, using bovine serum albumin as a standard. The amount of H^+-dependent GlySar absorbed was calculated as the difference between uptake in pH 6.0 and pH 7.5 uptake buffers. The amount of competitor substrate-inhibitable GlySar uptake was calculated as the quotient of GlySar uptake in the absence and presence of 10 mM competitor substrate (dipeptide or amino acid) multiplied by 100%.

canine PepT1 (cPepT1) [3] = target: T1, canine PepT1 (cPepT1); test: Inhibition of H+-dependent 100 μM GlySar uptake by MDCK cells cultured in LHM; format: cell-based; conditions: for % inhibition of H+-dependent GlySar uptake: 1 mM extracellular substrate, 100 μM GlySar, pH 6.0, 30 min
Description: Characteristic hallmarks of low affinity H^+/peptide cotransport activity, classically defined using membrane vesicles of several species, and more recently by functional expression studies using human, rat, and rabbit PepT1 cDNA, is the recognition of some, but not all, β-lactam antibiotics. […] To determine whether MDCK cPepT1 activity shared these functional features, the uptake of 100 μM GlySar in the absence and presence of pH 7.5 and pH 6.0 buffer, and, in pH 6.0 buffers, the presence of 1 mM additional GlySar (self-inhibitor control), 3 mM Penicillin-G, 30 μM cefadroxil, or 3 mM cefadroxil was compared (FIG. 13).
Other hallmarks of PepT1 function are the decreased ability of Gly-containing peptides to inhibit GlySar, in proportion to their length, and sensitivity to inhibition by carnosine (β-Ala-His).
Accordingly, the following general regimen was used to perform a series of experiments that evaluated the relative abilities of candidate di-(primarily) and tri-peptides to inhibit GlySar uptake by endogenously expressed cPepT1 in MDCK cells:
1. Sixty thousand cells/well were plated into collagen-coated 24-well trays and cultured at 37° C. in an atmosphere of 95% air/5% CO2 in DMEM/10% FCS that contained antibiotics for 1 day.
2. The media was removed and cells were cultured in LHM/10% FCS/antibiotics for 1 day.
3. The media was removed and cells cultured in LHM/10% FCS (no antibiotics) for 20 h.
4. The media was removed and cells cultured for 30 min in air at 37° C. in depletion medium (25 mM Hepes/Tris (pH 7.5), 140 mM NaCl, 5.4 mM KCl, 1.8 mM CaCl2, 0.8 mM MgSO4, and 5 mM glucose, to normalize intracellular nutrient pools.
as §1
In total, 23 inhibitory peptides and 2 drug compounds were screened using this protocol.

[4] = substrate: CN(CC(=O)O)C(=O)CN; test: Characterization of GlySar uptake by MDCK cells (Km, pH gradient, time course); format: cell-based, canine; conditions: 37.0 °C
Description: as §2, with “Transport was initiated by the addition of 0.25 mL of uptake buffer that contained 2.88 μm GlySar. After 30 min of uptake at 37° C., transport was terminated by rapid washing of cells with 4×2 mL 4° C. uptake buffer.” left out
To preliminarily characterize the kinetic parameters of peptide transport by MDCK cells, the uptake of GlySar in media that contained pH 6.0 and 0.00064, 0.0025, 0.010, 0.04, 0.160, 0.640, 2.56, or 10.2 mM of GlySar was measured (FIG. 6). […]
To confirm that H^+-dependent GlySar uptake was saturable, and therefore mediated, the uptake of GlySar from pH 6.0 and 7.4 uptake buffers containing 0.025, 0.1, 0.4, 1.6, 6.4, or 25.6 mM GlySar was evaluated (FIG. 12). […]

Row | % inhibition of H+-dependent GlySar uptake (canine PepT1 (cPepT1) [1]) | Glysylsarcosine uptake (canine PepT1 (cPepT1) [2]; collagen-coated trays) | Glysylsarcosine uptake (canine PepT1 (cPepT1) [2]; poly-L-lysine-coated trays) | % inhibition of H+-dependent GlySar uptake (canine PepT1 (cPepT1) [3]) | Molecule | inhibition of H+-independent GlySar uptake (MDCK cells) | other results
1 | 62% |  |  |  | N[C@@H](Cc1c[nH]c2ccccc12)C(=O)N[C@@H](Cc1c[nH]c2ccccc12)C(=O)O [TrpTrp] (H-Trp-Trp-OH; N-terminus and C-terminus assumed) | about 22% | 
2 | 58% | 7.68 ± 1.37 pmol 30 min^−1 mg^−1 protein | 5.50 ± 0.58 pmol 30 min^−1 mg^−1 protein | 113% | CC(C)C[C@H](N)C(=O)N[C@@H](Cc1c[nH]c2ccccc12)C(=O)O [LeuTrp] | 46% | inhibition of H+-dependent uptake of GlySar (canine PepT1 (cPepT1) [2]; cells grown on collagen): 88%; inhibition of H+-dependent uptake of GlySar (canine PepT1 (cPepT1) [2]; cells grown on poly-lysine): 87%; % inhibition of pH 6.0 uptake (canine PepT1 (cPepT1) [2]; collagen-coated trays): 11.7%; % inhibition of pH 6.0 uptake (canine PepT1 (cPepT1) [2]; poly-L-lysine-coated trays): 13.0%
3 | 92% and 94% | 5.21 ± 0.39 pmol 30 min^−1 mg^−1 protein | 3.44 ± 0.27 pmol 30 min^−1 mg^−1 protein | 117% and 116% | CC(C)C[C@H](NC(=O)[C@@H](N)Cc1c[nH]c2ccccc12)C(=O)O [TrpLeu] (H-Trp-Leu-OH; N-terminus and C-terminus assumed) | 36% | inhibition of H+-dependent uptake of GlySar (canine PepT1 (cPepT1) [2]; cells grown on collagen): 92%; inhibition of H+-dependent uptake of GlySar (canine PepT1 (cPepT1) [2]; cells grown on poly-lysine): 92%; % inhibition of pH 6.0 uptake (canine PepT1 (cPepT1) [2]; collagen-coated trays): 8.0%; % inhibition of pH 6.0 uptake (canine PepT1 (cPepT1) [2]; poly-L-lysine-coated trays): 8.1%
4 |  |  |  | 19% | [Gly]4 (GGGG) [positive control (model) substrate] |  | 
5 |  |  |  | 50% | MetGlyMetMet (MGMM; OTHER INFORMATION: tetrapeptide) |  | 
6 |  |  |  | 5.0% | NCC(=O)O [Gly] |  | 

The next lines start with the molecule.

Row | Molecule | % inhibition of H+-dependent GlySar uptake (canine PepT1 (cPepT1) [1]) | Glysylsarcosine uptake (canine PepT1 (cPepT1) [2]; collagen-coated trays) | Glysylsarcosine uptake (canine PepT1 (cPepT1) [2]; poly-L-lysine-coated trays) | % inhibition of H+-dependent GlySar uptake (canine PepT1 (cPepT1) [3]) | inhibition of H+-independent GlySar uptake (MDCK cells) | other results
7 | CC(C)C[C@H](N)C(=O)O [Leucine] |  | 63.0 ± 4.00 pmol 30 min^−1 mg^−1 protein | 41.93 ± 2.70 pmol 30 min^−1 mg^−1 protein | neither Leu nor Trp significantly influenced |  | 
8 | CC1(C)S[C@@H]2[C@H](NC(=O)Cc3ccccc3)C(=O)N2[C@H]1C(=O)O [Penicillin-G] |  |  |  | 0% |  | inhibition of H+-dependent GlySar uptake (canine PepT1 (cPepT1) [3]; 3 mM Penicillin-G, 100 μM GlySar (FIG. 13)): not inhibited
9 | N[C@@H](Cc1c[nH]c2ccccc12)C(=O)O [Trp, tryptophan] |  |  |  | neither Leu nor Trp significantly influenced |  | 
10 | canine PepT1 (cPepT1) (Canis lupus familiaris) (protein, endogenous in cells; host or cells: MDCK (Madin-Darby Canine Kidney) cells, whole-cell [3H]-GlySar uptake) MGMSKSYGCFGYPLSIFFIVVNEFCERFSYYGMRALLILYFRRFIGWDDNLSTAIYHTFVALCYLTPILGALIADSWLGKFKTIVSLSIVYTIGQAVTAVSSINDLTDYNKDGTPDNLSVHVALSMIGLALIALGTGGIKPCVSAFGGDQFEEGQEKQRNRFFSIFYLAINAGSLISTIVTPMLRVHECGIYSQKACYPLAFGVPAALMAVSLIVFVIGSGMYKKFQPQGNVMGKVVKCIGFALKNRFRHRSKQFPKREHWLDWAKEKYDERLISQIKMVTKVMFLYIPLPMFWALFDQQGSRWTLQATAMSGKIGLLEVQPDQMQTVNAILIVVMVPIMDAVVYPLIAKCGFNFTSLKRMTVGMFLASMAFVMAAIVQLEIDKTLPVFPKQNEVQIKVLNIGNGAMNVSFPGAVVTVSQMSQSDGFMTFDVDKLTSINISSTGSPVIPVTYNFEQGHRHTLLVWAPNNYRVVKDGLNQKPEKGENGIRFINSLNESLNITMGDKVYVNVTSHNASEYQFFSLGTKNITISSTQQISQNCTKVLQSSNLEFGSAYTYVIGTQSTGCPELHMFEDISPNTVNMALQIPQYFLITCGEVVFSVTGLEFSYSQAPSNMKSVLQAGWLLTVAVGNIIVLIVAGAGQFSEQWAEYILFAALLLVVCVIFAIMARFYTYVNPAEIEAQFDDDEKKNLEKMNVYSTVTPVSQTQM |  |  |  |  |  | Km ([4]; other: MDCK cells seeded at 60K/well grown in LHM (FIG. 12)): 1100 µM and 1000 µM; Km ([4]; other: MDCK cells, only pH 6.0 uptake buffer, pH 6.0): 1100 µM; Km ([4]; other: confluent MDCK cells, pH 6.0 media, graphical evaluation (FIG. 6), pH 6.0): 4000 µM
